Measured values from PubChem BioAssay (NCI).
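Growth conditions: 96-well plates. Treatment: test compound, 48 hours, 5 concentrations. Analysis: linear interpolation between bracketing concentrations; unreached endpoints set to highest concentration. GI50 = concentration required for 50% inhibition of growth. Definition used: TGI = concentration required for complete inhibition of growth.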

Columns and labels:
Assay in all cases: NCI anticancer screen, dose series, 48 h
HL-60(TB) leukemia = system: HL-60(TB) leukemia
A498 renal = system: A498 renal
NCI-H226 lung = system: NCI-H226 lung
HS 578T breast = system: HS 578T breast
BT-549 breast = system: BT-549 breast
SR leukemia = system: SR leukemia
UO-31 renal = system: UO-31 renal
HCT-15 colon = system: HCT-15 colon
HT29 colon = system: HT29 colon
KM12 colon = system: KM12 colon
NCI/ADR-RES ovarian = system: NCI/ADR-RES ovarian
SF-539 CNS = system: SF-539 CNS
LOX IMVI melanoma = system: LOX IMVI melanoma
MDA-MB-435 = system: MDA-MB-435
EKVX NSCLC = system: EKVX NSCLC
SK-OV-3 ovarian = system: SK-OV-3 ovarian
RPMI-8226 leukemia = system: RPMI-8226 leukemia
TK-10 renal = system: TK-10 renal
M14 melanoma = system: M14 melanoma
CCRF-CEM leukemia = system: CCRF-CEM leukemia
SK-MEL-2 melanoma = system: SK-MEL-2 melanoma
IGROV1 ovarian = system: IGROV1 ovarian
MOLT-4 leukemia = system: MOLT-4 leukemia
OVCAR-5 ovarian = system: OVCAR-5 ovarian
SNB-19 CNS = system: SNB-19 CNS
UACC-257 melanoma = system: UACC-257 melanoma
OVCAR-3 ovarian = system: OVCAR-3 ovarian
DU-145 prostate = system: DU-145 prostate
U251 CNS = system: U251 CNS
HOP-92 NSCLC = system: HOP-92 NSCLC
MCF7 breast = system: MCF7 breast
MALME-3M melanoma = system: MALME-3M melanoma
786-0 renal = system: 786-0 renal
HCC-2998 colon = system: HCC-2998 colon
PC-3 prostate = system: PC-3 prostate
SW-620 colon = system: SW-620 colon
HOP-62 NSCLC = system: HOP-62 NSCLC
NCI-H460 lung = system: NCI-H460 lung
SK-MEL-5 melanoma = system: SK-MEL-5 melanoma
OVCAR-8 ovarian = system: OVCAR-8 ovarian
SF-295 CNS = system: SF-295 CNS
SNB-75 CNS = system: SNB-75 CNS
NCI-H522 lung = system: NCI-H522 lung
HCT-116 colon = system: HCT-116 colon
CAKI-1 renal = system: CAKI-1 renal
SN12C renal = system: SN12C renal
MDA-MB-231 breast = system: MDA-MB-231 breast
T-47D breast = system: T-47D breast
MDA-MB-468 breast = system: MDA-MB-468 breast
OVCAR-4 ovarian = system: OVCAR-4 ovarian
SF-268 CNS = system: SF-268 CNS
K-562 leukemia = system: K-562 leukemia
A549 NSCLC = system: A549 NSCLC
SK-MEL-28 melanoma = system: SK-MEL-28 melanoma
UACC-62 melanoma = system: UACC-62 melanoma
NCI-H23 lung = system: NCI-H23 lung
COLO 205 colon = system: COLO 205 colon
ACHN renal = system: ACHN renal

With `COc1cc(/C=C/C(=O)c2ccccc2)ccc1Oc1nc(Nc2ccc(F)cc2)nc(N(C)C)n1` as the molecule, how does the GI50 (HL-60(TB) leukemia) read?
The GI50 was 8.38 µM.

What about the TGI (HL-60(TB) leukemia) of the same molecule?
Its TGI is 67.1 µM.

What about the GI50 (A498 renal) of the same molecule?
Its GI50 is 27 µM.

And the TGI (A498 renal)?
The TGI was greater than 100 µM.

And the GI50 (NCI-H226 lung)?
The GI50 was 4.94 µM.

And the TGI (NCI-H226 lung)?
The TGI was 21.5 µM.

What about the GI50 (HS 578T breast) of the same molecule?
Its GI50 is 5.44 µM.

What about the TGI (HS 578T breast) of the same molecule?
Its TGI is 56.4 µM.

And the GI50 (BT-549 breast)?
Its GI50 is 12 µM.

What about the TGI (BT-549 breast) of the same molecule?
Its TGI is 28.6 µM.

What about the GI50 (SR leukemia) of the same molecule?
The GI50 was 2.9 µM.

What about the TGI (SR leukemia) of the same molecule?
The TGI was greater than 100 µM.

And the GI50 (UO-31 renal)?
Its GI50 is 4.4 µM.

What about the TGI (UO-31 renal) of the same molecule?
Its TGI is greater than 100 µM.

And the GI50 (HCT-15 colon)?
Its GI50 is 3.31 µM.

And the TGI (HCT-15 colon)?
Its TGI is 12.9 µM.

What about the GI50 (HT29 colon) of the same molecule?
Its GI50 is 4.36 µM.

And the TGI (HT29 colon)?
The TGI was 19 µM.

What about the GI50 (KM12 colon) of the same molecule?
Its GI50 is 14.9 µM.

And the TGI (KM12 colon)?
The TGI was greater than 100 µM.

And the GI50 (NCI/ADR-RES ovarian)?
Its GI50 is 7.04 µM.

What about the TGI (NCI/ADR-RES ovarian) of the same molecule?
Its TGI is 22.6 µM.

And the GI50 (SF-539 CNS)?
The GI50 was 13.8 µM.

And the TGI (SF-539 CNS)?
The TGI was 26.7 µM.

What about the GI50 (LOX IMVI melanoma) of the same molecule?
Its GI50 is 1.6 µM.

What about the TGI (LOX IMVI melanoma) of the same molecule?
The TGI was 3.15 µM.

What about the GI50 (MDA-MB-435) of the same molecule?
Its GI50 is 7.39 µM.

What about the TGI (MDA-MB-435) of the same molecule?
Its TGI is 28.4 µM.

What about the GI50 (EKVX NSCLC) of the same molecule?
Its GI50 is 4.73 µM.

What about the TGI (EKVX NSCLC) of the same molecule?
The TGI was greater than 100 µM.

And the GI50 (SK-OV-3 ovarian)?
The GI50 was 48.6 µM.

And the TGI (SK-OV-3 ovarian)?
Its TGI is greater than 100 µM.

And the GI50 (RPMI-8226 leukemia)?
Its GI50 is 2.83 µM.

And the TGI (RPMI-8226 leukemia)?
Its TGI is 33.9 µM.

And the GI50 (TK-10 renal)?
Its GI50 is 18 µM.

What about the TGI (TK-10 renal) of the same molecule?
The TGI was greater than 100 µM.

What about the GI50 (M14 melanoma) of the same molecule?
Its GI50 is 13 µM.

What about the TGI (M14 melanoma) of the same molecule?
Its TGI is 37.8 µM.

What about the GI50 (CCRF-CEM leukemia) of the same molecule?
Its GI50 is 3.38 µM.

What about the TGI (CCRF-CEM leukemia) of the same molecule?
Its TGI is greater than 100 µM.

What about the GI50 (SK-MEL-2 melanoma) of the same molecule?
Its GI50 is 4.68 µM.

And the TGI (SK-MEL-2 melanoma)?
Its TGI is 20.7 µM.

And the GI50 (IGROV1 ovarian)?
The GI50 was 18.7 µM.

And the TGI (IGROV1 ovarian)?
Its TGI is greater than 100 µM.

And the GI50 (MOLT-4 leukemia)?
Its GI50 is 2.56 µM.

And the TGI (MOLT-4 leukemia)?
The TGI was greater than 100 µM.

And the GI50 (OVCAR-5 ovarian)?
The GI50 was 13.9 µM.

And the TGI (OVCAR-5 ovarian)?
Its TGI is 48.3 µM.

What about the GI50 (SNB-19 CNS) of the same molecule?
The GI50 was 10.2 µM.

What about the TGI (SNB-19 CNS) of the same molecule?
The TGI was 27.6 µM.

And the GI50 (UACC-257 melanoma)?
Its GI50 is 6.44 µM.

And the TGI (UACC-257 melanoma)?
Its TGI is 77.2 µM.

And the GI50 (OVCAR-3 ovarian)?
Its GI50 is 11.8 µM.

And the TGI (OVCAR-3 ovarian)?
The TGI was greater than 100 µM.

And the GI50 (DU-145 prostate)?
The GI50 was 27.3 µM.

What about the TGI (DU-145 prostate) of the same molecule?
The TGI was greater than 100 µM.

And the GI50 (U251 CNS)?
The GI50 was 2.84 µM.

And the TGI (U251 CNS)?
Its TGI is 13.4 µM.

What about the GI50 (HOP-92 NSCLC) of the same molecule?
The GI50 was 2.08 µM.

What about the TGI (HOP-92 NSCLC) of the same molecule?
The TGI was 12.9 µM.

What about the GI50 (MCF7 breast) of the same molecule?
Its GI50 is 3.08 µM.

What about the TGI (MCF7 breast) of the same molecule?
Its TGI is 15 µM.

What about the GI50 (MALME-3M melanoma) of the same molecule?
The GI50 was 15.9 µM.

What about the TGI (MALME-3M melanoma) of the same molecule?
Its TGI is 39.6 µM.

And the GI50 (786-0 renal)?
The GI50 was 20.5 µM.

What about the TGI (786-0 renal) of the same molecule?
The TGI was 87 µM.

And the GI50 (HCC-2998 colon)?
The GI50 was 12.9 µM.

What about the TGI (HCC-2998 colon) of the same molecule?
The TGI was 76.5 µM.

And the GI50 (PC-3 prostate)?
Its GI50 is 10 µM.

And the TGI (PC-3 prostate)?
The TGI was greater than 100 µM.

And the GI50 (SW-620 colon)?
Its GI50 is 1.81 µM.

What about the TGI (SW-620 colon) of the same molecule?
The TGI was 3.97 µM.

What about the GI50 (HOP-62 NSCLC) of the same molecule?
The GI50 was 26.6 µM.

And the TGI (HOP-62 NSCLC)?
The TGI was greater than 100 µM.

What about the GI50 (NCI-H460 lung) of the same molecule?
Its GI50 is 9.14 µM.

What about the TGI (NCI-H460 lung) of the same molecule?
Its TGI is 30 µM.

And the GI50 (SK-MEL-5 melanoma)?
Its GI50 is 6.21 µM.

And the TGI (SK-MEL-5 melanoma)?
Its TGI is 34.2 µM.

And the GI50 (OVCAR-8 ovarian)?
The GI50 was 5.9 µM.

What about the TGI (OVCAR-8 ovarian) of the same molecule?
The TGI was 26.5 µM.

What about the GI50 (SF-295 CNS) of the same molecule?
The GI50 was 6.89 µM.

And the TGI (SF-295 CNS)?
Its TGI is 48.5 µM.

What about the GI50 (SNB-75 CNS) of the same molecule?
The GI50 was 4.7 µM.

What about the TGI (SNB-75 CNS) of the same molecule?
The TGI was 95.9 µM.

What about the GI50 (NCI-H522 lung) of the same molecule?
The GI50 was 5.15 µM.

What about the TGI (NCI-H522 lung) of the same molecule?
The TGI was 59.2 µM.

What about the GI50 (HCT-116 colon) of the same molecule?
The GI50 was 3.21 µM.

What about the TGI (HCT-116 colon) of the same molecule?
The TGI was 12.9 µM.

What about the GI50 (CAKI-1 renal) of the same molecule?
The GI50 was 5.72 µM.

And the TGI (CAKI-1 renal)?
Its TGI is greater than 100 µM.

And the GI50 (SN12C renal)?
Its GI50 is 7.32 µM.

And the TGI (SN12C renal)?
Its TGI is 22.1 µM.

What about the GI50 (MDA-MB-231 breast) of the same molecule?
Its GI50 is 6.92 µM.

And the TGI (MDA-MB-231 breast)?
The TGI was 21.9 µM.

What about the GI50 (T-47D breast) of the same molecule?
The GI50 was 3.36 µM.

What about the TGI (T-47D breast) of the same molecule?
The TGI was greater than 100 µM.

What about the GI50 (MDA-MB-468 breast) of the same molecule?
The GI50 was 3.21 µM.

What about the TGI (MDA-MB-468 breast) of the same molecule?
The TGI was 19.9 µM.

And the GI50 (OVCAR-4 ovarian)?
Its GI50 is 5.85 µM.

What about the TGI (OVCAR-4 ovarian) of the same molecule?
Its TGI is 41.7 µM.

And the GI50 (SF-268 CNS)?
The GI50 was 12.2 µM.

And the TGI (SF-268 CNS)?
Its TGI is greater than 100 µM.

What about the GI50 (K-562 leukemia) of the same molecule?
The GI50 was 3.57 µM.

And the TGI (K-562 leukemia)?
The TGI was greater than 100 µM.

What about the GI50 (A549 NSCLC) of the same molecule?
The GI50 was 11.7 µM.

And the TGI (A549 NSCLC)?
The TGI was greater than 100 µM.

And the GI50 (SK-MEL-28 melanoma)?
Its GI50 is 12.2 µM.

And the TGI (SK-MEL-28 melanoma)?
Its TGI is 32.1 µM.

What about the GI50 (UACC-62 melanoma) of the same molecule?
Its GI50 is 4.99 µM.

What about the TGI (UACC-62 melanoma) of the same molecule?
Its TGI is 24.2 µM.

What about the GI50 (NCI-H23 lung) of the same molecule?
Its GI50 is 12.6 µM.

And the TGI (NCI-H23 lung)?
Its TGI is 51.4 µM.

And the GI50 (COLO 205 colon)?
Its GI50 is 15.1 µM.

And the TGI (COLO 205 colon)?
Its TGI is greater than 100 µM.

What about the GI50 (ACHN renal) of the same molecule?
Its GI50 is 8.29 µM.

What about the TGI (ACHN renal) of the same molecule?
Its TGI is 37.4 µM.
